Source: ChEMBL document CHEMBL1152860, “Synthesis and antiproliferative activity of 3-amino-N-phenyl-1H-indazole-1-carboxamides” (2009)
Active and inactive are the calls of the source. No cut-off for these calls is given here.

Key:
[1] = Growth inhibition of human Hs 578T cells after 48 hrs by SRB assay; assay type: functional
RPMI-8226 = experiment: Growth inhibition of human RPMI8226 cells after 48 hrs by SRB assay; assay type: functional; conditions: RPMI-8226, 48 h
MCF7 = experiment: Growth inhibition of human MCF7 cells after 48 hrs by SRB assay; assay type: functional; conditions: MCF7, 48 h
NCI-H322M = experiment: Growth inhibition of human NCI-H322M cells after 48 hrs by SRB assay; assay type: functional
K562 [2] = experiment: Growth inhibition of human K562 cells after 48 hrs by SRB assay; assay type: functional; conditions: K562, 48 h
SW-620 = experiment: Growth inhibition of human SW620 cells after 48 hrs by SRB assay; assay type: functional; conditions: SW-620, 48 h
A549 = experiment: Growth inhibition of human A549 cells after 48 hrs by SRB assay; assay type: functional; conditions: A549, 48 h
HOP-92 = experiment: Growth inhibition of human HOP92 cells after 48 hrs by SRB assay; assay type: functional; conditions: HOP-92, 48 h
DU-145 = experiment: Growth inhibition of human DU145 cells after 48 hrs by SRB assay; assay type: functional; conditions: DU-145, 48 h
HCT-15 = experiment: Growth inhibition of human HCT15 cells after 48 hrs by SRB assay; assay type: functional; conditions: HCT-15, 48 h
NCI/ADR-RES = experiment: Growth inhibition of human NCI/ADR-RES cells after 48 hrs by SRB assay; assay type: functional
SK-MEL-28 = experiment: Growth inhibition of human SK-MEL-28 cells after 48 hrs by SRB assay; assay type: functional; conditions: SK-MEL-28, 48 h
CCRF-CEM = experiment: Growth inhibition of human CCRF-CEM cells after 48 hrs by SRB assay; assay type: functional
SF-268 = experiment: Growth inhibition of human SF268 cells after 48 hrs by SRB assay; assay type: functional; conditions: SF-268, 48 h
SR = experiment: Growth inhibition of human SR cells after 48 hrs by SRB assay; assay type: functional
SN12C = experiment: Growth inhibition of human SN12C cells after 48 hrs by SRB assay; assay type: functional
SF-539 = experiment: Growth inhibition of human SF539 cells after 48 hrs by SRB assay; assay type: functional; conditions: SF-539, 48 h
RXF 393 = experiment: Growth inhibition of human […] cells after 48 hrs by SRB assay; assay type: functional; conditions: RXF 393, 48 h
OVCAR-3 = experiment: Growth inhibition of human OVCAR-3 cells after 48 hrs by SRB assay; assay type: functional; conditions: OVCAR-3, 48 h
CAKI-1 = experiment: Growth inhibition of human Caki1 cells after 48 hrs by SRB assay; assay type: functional; conditions: CAKI-1, 48 h
Malme-3M = experiment: Growth inhibition of human MALME-3M cells after 48 hrs by SRB assay; assay type: functional
MDA-MB-435 = experiment: Growth inhibition of human MDA-MB-435 cells after 48 hrs by SRB assay; assay type: functional; conditions: MDA-MB-435, 48 h
OVCAR-4 = experiment: Growth inhibition of human OVCAR4 cells after 48 hrs by SRB assay; assay type: functional; conditions: OVCAR-4, 48 h
NCI-H460 = experiment: Growth inhibition of human NCI-H460 cells after 48 hrs by SRB assay; assay type: functional; conditions: NCI-H460, 48 h
HT-29 = experiment: Growth inhibition of human HT-29 cells after 48 hrs by SRB assay; assay type: functional; conditions: HT-29, 48 h
BT-549 = experiment: Growth inhibition of human BT549 cells after 48 hrs by SRB assay; assay type: functional; conditions: BT-549, 48 h
HCC 2998 = experiment: Growth inhibition of human HCC2998 cells after 48 hrs by SRB assay; assay type: functional; conditions: HCC 2998, 48 h
LOX IMVI = experiment: Growth inhibition of human LOXIMVI cells after 48 hrs by SRB assay; assay type: functional
EKVX = experiment: Growth inhibition of human EKVX cells after 48 hrs by SRB assay; assay type: functional
OVCAR-8 = experiment: Growth inhibition of human OVCAR8 cells after 48 hrs by SRB assay; assay type: functional; conditions: OVCAR-8, 48 h
HL-60(TB) = experiment: Growth inhibition of human HL-60(TB) cells after 48 hrs by SRB assay; assay type: functional; conditions: HL-60, 48 h
MDA-MB-231 = experiment: Growth inhibition of human MDA-MB-231 cells after 48 hrs by SRB assay; assay type: functional; conditions: MDA-MB-231, 48 h
KM12 = experiment: Growth inhibition of human KM12 cells after 48 hrs by SRB assay; assay type: functional; conditions: KM12, 48 h
NCI-H226 = experiment: Growth inhibition of human NCI-H226 cells after 48 hrs by SRB assay; assay type: functional; conditions: NCI-H226, 48 h
NCI-H23 = experiment: Growth inhibition of human NCI-H23 cells after 48 hrs by SRB assay; assay type: functional; conditions: NCI-H23, 48 h
SK-OV-3 = experiment: Growth inhibition of human SKOV3 cells after 48 hrs by SRB assay; assay type: functional; conditions: SK-OV-3, 48 h
UACC-257 = experiment: Growth inhibition of human UACC257 cells after 48 hrs by SRB assay; assay type: functional; conditions: UACC-257, 48 h
ACHN = experiment: Growth inhibition of human ACHN cells after 48 hrs by SRB assay; assay type: functional
A498 = experiment: Growth inhibition of human A498 cells after 48 hrs by SRB assay; assay type: functional; conditions: A498, 48 h
UO-31 = experiment: Growth inhibition of human UO31 cells after 48 hrs by SRB assay; assay type: functional; conditions: UO-31, 48 h
IGROV-1 = experiment: Growth inhibition of human IGROV1 cells after 48 hrs by SRB assay; assay type: functional; conditions: IGROV-1, 48 h
SNB-19 = experiment: Growth inhibition of human SNB19 cells after 48 hrs by SRB assay; assay type: functional; conditions: SNB-19, 48 h
PC-3 = experiment: Growth inhibition of human PC3 cells after 48 hrs by SRB assay; assay type: functional; conditions: PC-3, 48 h
U-251 = experiment: Growth inhibition of human U251 cells after 48 hrs by SRB assay; assay type: functional; conditions: U-251, 48 h
COLO 205 = experiment: Growth inhibition of human COLO205 cells after 48 hrs by SRB assay; assay type: functional; conditions: COLO 205, 48 h
MOLT-4 = experiment: Growth inhibition of human MOLT4 cells after 48 hrs by SRB assay; assay type: functional; conditions: MOLT-4, 48 h
HCT-116 = experiment: Growth inhibition of human HCT116 cells after 48 hrs by SRB assay; assay type: functional; conditions: HCT-116, 48 h
K562 [3] = experiment: Cell cycle arrest in human K562 cells assessed as accumulation at G2/M phase at 180 uM after 24 hrs using propidium iodide staining by flow cytometry; assay type: functional, cell-based
K562 [4] = experiment: Cell cycle arrest in human K562 cells assessed as accumulation at S phase at 180 uM after 24 hrs using propidium iodide staining by flow cytometry; assay type: functional, cell-based
M14 = experiment: Growth inhibition of human M14 cells after 48 hrs by SRB assay; assay type: functional; conditions: M14, 48 h
SF-295 = experiment: Growth inhibition of human SF295 cells after 48 hrs by SRB assay; assay type: functional; conditions: SF-295, 48 h
HOP-62 = experiment: Growth inhibition of human HOP62 cells after 48 hrs by SRB assay; assay type: functional; conditions: HOP-62, 48 h
SNB-75 = experiment: Growth inhibition of human SNB75 cells after 48 hrs by SRB assay; assay type: functional; conditions: SNB-75, 48 h
TK-10 = experiment: Growth inhibition of human TK10 cells after 48 hrs by SRB assay; assay type: functional; conditions: TK-10, 48 h
UACC-62 = experiment: Growth inhibition of human UACC62 cells after 48 hrs by SRB assay; assay type: functional; conditions: UACC-62, 48 h
SK-MEL-5 = experiment: Growth inhibition of human SK-MEL-5 cells after 48 hrs by SRB assay; assay type: functional; conditions: SK-MEL-5, 48 h
OVCAR-5 = experiment: Growth inhibition of human OVCAR5 cells after 48 hrs by SRB assay; assay type: functional; conditions: OVCAR-5, 48 h
786-0 = experiment: Growth inhibition of human 786-0 cells after 48 hrs by SRB assay; assay type: functional; conditions: 786-0, 48 h
T47D = experiment: Growth inhibition of human T47D cells after 48 hrs by SRB assay; assay type: functional
NCI-H522 = experiment: Growth inhibition of human NCI-H522 cells after 48 hrs by SRB assay; assay type: functional; conditions: NCI-H522, 48 h

## COc1ccccc1NC(=O)n1nc(N)c2ccccc21
[1]
  GI50: 33.8 µM
RPMI-8226
  GI50: 86 µM
MCF7
  GI50: 0.269 µM
  TGI: 64.6 µM
MCF7; read-out: LC50 (the source's name)
  CC50: > 100 µM
NCI-H322M
  GI50: > 100 µM
K562 [2]
  GI50: > 100 µM
SW-620
  GI50: > 100 µM
A549
  GI50: > 100 µM
HOP-92
  GI50: 30.2 µM
DU-145
  GI50: > 100 µM
HCT-15
  GI50: 73.6 µM
NCI/ADR-RES
  GI50: 90.7 µM
SK-MEL-28
  GI50: > 100 µM
CCRF-CEM
  GI50: > 100 µM
SF-268
  GI50: > 100 µM
SR
  GI50: 92.5 µM
SN12C
  GI50: > 100 µM
SF-539
  GI50: 60.9 µM
RXF 393
  GI50: 45.7 µM
OVCAR-3
  GI50: > 100 µM
CAKI-1
  GI50: > 100 µM
Malme-3M
  GI50: > 100 µM
MDA-MB-435
  GI50: > 100 µM
OVCAR-4
  GI50: > 100 µM
NCI-H460
  GI50: 78.9 µM
HT-29
  GI50: > 100 µM
BT-549
  GI50: 28 µM
HCC 2998
  GI50: 66.2 µM
LOX IMVI
  GI50: 92.1 µM
EKVX
  GI50: 44.8 µM
OVCAR-8
  GI50: > 100 µM
HL-60(TB)
  GI50: 47.2 µM
MDA-MB-231
  GI50: 46.1 µM
KM12
  GI50: 39.1 µM
NCI-H226
  GI50: > 100 µM
NCI-H23
  GI50: > 100 µM
SK-OV-3
  GI50: > 100 µM
UACC-257
  GI50: > 100 µM
ACHN
  GI50: > 100 µM
A498
  GI50: > 100 µM
UO-31
  GI50: > 100 µM
IGROV-1
  GI50: 27.3 µM
SNB-19
  GI50: > 100 µM
PC-3
  GI50: 83.1 µM
U-251
  GI50: 98.7 µM
COLO 205
  GI50: > 100 µM
MOLT-4
  GI50: 54 µM
HCT-116
  GI50: > 100 µM
K562 [3]
  Activity: Active
K562 [4]
  Activity: Active
M14
  GI50: > 100 µM
SF-295
  GI50: 56.6 µM
HOP-62
  GI50: 100 µM
SNB-75
  GI50: 37 µM
TK-10
  GI50: 74.3 µM
UACC-62
  GI50: > 100 µM
SK-MEL-5
  GI50: > 100 µM
OVCAR-5
  GI50: > 100 µM
786-0
  GI50: > 100 µM
T47D
  GI50: > 100 µM
NCI-H522
  GI50: 49.5 µM
